Results as given in ChEMBL document CHEMBL5537109, “Natural products as potential lead compounds to develop new antiviral drugs over the past decade” (Eur J Med Chem, 2023).
Numbered stars: 1 amine (or outer) side, 2 acyl side, 3 side chain; on linkers, the order of the positions; unused ones are H or OH. Bridge positions count the residues as written; N and C are the ends. Square brackets hold non-standard residues; d marks the D form. Peptide text beside a SMILES is read from it. X2 = CCCCCCCCC[C@@H](CCCC(=O)[*:1])O[*:2]; d(aThr) = C[C@@H](O)[C@@H](N)C(=O)O; aIle = CC[C@@H](C)[C@H](N)C(=O)O

How the values were obtained:
[1] = system: Human immunodeficiency virus 1; assay: Antiviral activity against HIV-1 harboring reverse transcriptase infected in human MT4 cells assessed as reduction in virus-induced cytopathic effect; assay type: functional, organism-based; settings: Human immunodeficiency virus 1, MT4
[2] = system: RAW264.7; assay: Cytotoxicity against mouse RAW264.7 cells assessed as reduction in cell viability incubated for 24 hrs by CCK-8 method; assay type: functional
[3] = biological target: Human immunodeficiency virus type 1 protease (Human immunodeficiency virus 1, UniProt Q72874); assay: Inhibition of HIV-1 protease
[4] = system: Human immunodeficiency virus 1; assay: Antiviral activity against HIV-1 infected in human MT4 cells assessed as reduction in viral replication; assay type: functional; settings: Human immunodeficiency virus 1, MT4
[5] = system: Human immunodeficiency virus 1; assay: Anti-HIV activity against HIV-1 IIIB infected in human C8166 cells assessed as inhibition of virus-induced cytopathic effect by MTT assay; assay type: functional, organism-based; settings: Human immunodeficiency virus 1, IIIB
[6] = Cytotoxicity against human C8166 cells assessed as inhibition of cell growth incubated for 48 hrs by MTT assay; assay type: toxicity, cell-based
[7] = system: Influenza A virus; assay: Antiviral activity against influenza A virus A/Hong Kong/1/68 (HK1, H3N2) infected in dog MDCK cells assessed as cytopathic effect; assay type: functional, organism-based
[8] = system: Influenza A virus; assay: Antiviral activity against influenza A virus H5N1 infected in dog MDCK cells assessed as viral growth inhibition; assay type: functional, organism-based
[9] = Inhibition of Influenza A virus A/California/04/2009 (H1N1) N-terminal his tagged domain of PA endonuclease expressed in Escherichia coli BL21 (DE3) cells
[10] = system: Influenza A virus; assay: Antiviral activity against influenza A virus H1N1(A/PR/8/34) infected in MDCK cells assessed as inhibition of cytopathic effect incubated for 48 hrs by MTT assay; assay type: functional, organism-based
[11] = Cytotoxicity against MDCK cells assessed as inhibition of cell growth incubated for 48 hrs by MTT assay; assay type: toxicity, cell-based, Canis lupus familiaris; settings: dog
[12] = system: Human immunodeficiency virus 1; assay: Antiviral activity against wild-type HIV-1 NL4-3 infected in human MT4 cells assessed as inhibition of viral growth by measuring reduction in p24 antigen level incubated for 3 to 7 days by ELISA analysis; assay type: functional, organism-based; settings: Human immunodeficiency virus 1, NL4-3, MT4
[13] = Cytotoxicity against human C8166 cells assessed as inhibition of cell growth by MTT assay; assay type: toxicity, cell-based
[14] = system: Human alphaherpesvirus 1; assay: Antiviral activity against HSV-1 assessed as inhibition of viral growth; assay type: functional, organism-based
[15] = Cytotoxicity against African green monkey Vero cells assessed as reduction in cell viability measured after 72 hrs by MTT assay; assay type: toxicity, cell-based; settings: chlorocebus sabaeus
[16] = system: Human alphaherpesvirus 1; assay: Antiviral activity against HSV-1 KOS infected in African green monkey Vero cells assessed as reduction in virus induced cytopathogenicity by plaque reduction assay; assay type: functional, organism-based; settings: Human alphaherpesvirus 1, KOS
[17] = Cytotoxicity against African green monkey Vero E6 cells assessed as reduction in cell growth incubated for 24 hrs by WST-8 assay; assay type: toxicity, cell-based, Vero C1008; settings: chlorocebus sabaeus
[18] = system: SARS-CoV-2; assay: Antiviral activity against SARS-CoV-2 NVDBB-2220 infected in African green monkey Vero cells assessed as reduction in virus-induced cytopathic effect incubated for 5 days by microscopic analysis; assay type: functional, organism-based; settings: Severe acute respiratory syndrome coronavirus 2, NVDBB-2220, Vero, 120 h
[19] = system: Huh-7; assay: Cytotoxicity against human Huh-7 cells assessed as reduction in cell viability incubated for 72 hrs by MTT assay; assay type: functional
[20] = system: HEK-293T; assay: Cytotoxicity against human HEK293T cells assessed as cell growth inhibition measured after 72 hrs by MTT assay; assay type: functional
[21] = system: SARS-CoV-2; assay: Antiviral activity against SARS-CoV-2 infected in African green monkey Vero cells assessed as reduction in viral replication; assay type: functional, organism-based; settings: Severe acute respiratory syndrome coronavirus 2, Vero
[22] = Cytotoxicity against African green monkey Vero cells assessed as reduction in cell viability measured after 72 hrs by MTS assay; assay type: toxicity, cell-based; settings: chlorocebus sabaeus

**Q.** Which results are given for `C=C(C)[C@@]1(OC(=O)c2ccccc2)[C@H](OC(C)=O)[C@@H]2[C@H](OC(C)=O)[C@@]3(C)O[C@@]4([C@@H]3OC(C)=O)[C@@H](OC(=O)c3ccccc3)[C@@H](C)C[C@H]4[C@@]2(O)[C@H](C)[C@@H]1OC(C)=O`?
**A.** EC50 [1]: 0.18 µM; CC50 [2]: > 200 µM

**Q.** Which results are given for `C=C(C)[C@]12C[C@@H](COC(C)=O)[C@@]3(OO1)[C@@H]1[C@H]2OCCCCCC[C@@H](C)[C@H]2[C@H](C)[C@H](OC(=O)c4ccccc4)[C@@](O)([C@H](O)[C@@]4(CO)O[C@@H]14)[C@@H]23`?
**A.** IC50 [3]: 4.3 µM; EC90 [4]: 0.0004 µM

**Q.** What does the source list for `COc1cc(OC)c2c(c1OC)C[C@H]1NCCc3cc4c(c-2c31)OCO4`?
**A.** EC50 [5]: 5.8 µM; CC50 at 48 h [6]: 43.6 µM

**Q.** With `O=C(O[C@H]1[C@H](Oc2ccc(O)cc2C(=O)O)O[C@H](CO)[C@@H](O)[C@@H]1OC(=O)c1cc(O)c(O)c(O)c1)c1cc(O)c(O)c(O)c1` as the molecule, how does the EC50 [7] read?
**A.** Its EC50 is 28.2 µM.

**Q.** And the IC50 [8]?
**A.** The IC50 was 24.6 µM.

**Q.** And the IC50 [9]?
**A.** Its IC50 is 30.7 µM.

**Q.** And the EC50 [10]?
**A.** The EC50 was 30.7 µM.

**Q.** What about the CC50 at 48 h [11] of the same molecule?
**A.** Its CC50 at 48 h is over 1000 µM.

**Q.** With `O=C1C=C2C[C@H](O[C@H]3C[C@@]45OC(=O)C=C4C[C@@H]3N3CCCC[C@H]35)[C@@H]3C[C@@]2(O1)[C@H]1CCCN31` as the molecule, how does the EC50 [12] read?
**A.** The EC50 was 120 µM.

**Q.** Which results are given for `C=C(C)[C@@]1(OC(C)=O)[C@H](OC(C)=O)[C@@H]2[C@H](OC(C)=O)[C@@]3(C)O[C@@]4([C@@H]3O)[C@@H](OC(=O)c3ccccc3)[C@@H](C)C[C@H]4[C@@]2(O)[C@H](C)[C@@H]1OC(=O)c1ccccc1`?
**A.** EC50 [1]: 0.21 µM; CC50 [2]: > 200 µM

**Q.** With `C=C(C)[C@]12C[C@@H](COC(C)=O)[C@@]34OC5(O[C@@H]1[C@@H]3[C@@H]1O[C@]1(CO)[C@@H](O)[C@@]1(O)[C@H]4[C@H]([C@H](C)[C@@H]1OC(=O)c1ccccc1)[C@H](C)C[C@H](OC(=O)c1ccccc1)[C@H](OC(=O)c1ccccc1)CCC[C@H]5O)O2` as the molecule, how does the EC50 [12] read?
**A.** The EC50 was 0.00025 µM.

**Q.** With `O=C1C=C2[C@H]3C=CC[C@]2(O1)[C@H]1CCCCN31` as the molecule, how does the EC50 [12] read?
**A.** Its EC50 is 45 µM.

**Q.** Which results are given for `O=C(OC[C@H]1O[C@@H](Oc2ccc(O)cc2C(=O)O)[C@H](O)[C@@H](OC(=O)c2cc(O)c(O)c(O)c2)[C@@H]1O)c1cc(O)c(O)c(O)c1`?
**A.** EC50 [7]: 33.3 µM; IC50 [8]: 11.6 µM; IC50 [9]: 29.2 µM; EC50 [10]: 20.2 µM; CC50 at 48 h [11]: 964 µM

**Q.** Which results are given for `C=C(C)[C@@]1(OC(=O)c2ccccc2)[C@H](OC(C)=O)[C@@H]2[C@H](OC(C)=O)[C@@]3(C)O[C@@]4([C@@H]3O)[C@@H](OC(=O)c3ccccc3)[C@@H](C)C[C@H]4[C@@]2(O)[C@H](C)[C@@H]1OC(C)=O`?
**A.** EC50 [1]: 0.095 µM; CC50 [2]: > 200 µM

**Q.** For `C=CC(C)(C)c1cc2cc3c(c(CC=C(C)C)c2oc1=O)O[C@H](C(C)(C)O)C3`, which CC50 [13] is on record?
**A.** The CC50 was over 200 µM.

**Q.** With `CCCCCCCCC[C@H]1CCCC(=O)N[C@H]([C@@H](C)O)C(=O)N[C@H](C)C(=O)N2CCC[C@H]2C(=O)N[C@@H](CCC(N)=O)C(=O)N[C@H](Cc2ccc(O)cc2)C(=O)N[C@@H]([C@H](C)CC)C(=O)O1` ([d(aThr)][dA]PQ[dY][aIle]; linker N-C via X2) as the molecule, how does the EC50 [14] read?
**A.** Its EC50 is 14 µM.

**Q.** For `COc1ccc2c(c1)N=C1c3cc(-c4nccc5c4[nH]c4cc(OC)ccc45)c(C)n3CCC12O` (racemic), which CC50 at 72 h [15] is on record?
**A.** The CC50 at 72 h was 74.2 µM.

**Q.** What about the EC50 [16] of the same molecule?
**A.** The EC50 was 2.12 µM.

**Q.** Which CC50 at 24 h [17] does the source give for `O=C1c2c(O)cc(O)cc2O[C@H](c2cc(O)c(O)c(O)c2)[C@H]1O` [AMPELOPSIN] here?
**A.** Its CC50 at 24 h is over 200 µM.

**Q.** With `C=C1C(=O)O[C@@]23[C@H]1CC[C@@H](C)[C@@H]2CC[C@@]1(C)O[C@@H]31` [ARTEANNUIN B] as the molecule, how does the EC50 [18] read?
**A.** Its EC50 is 10.3 µM.

**Q.** Which EC50 [18] does the source give for `C[C@H]1[C@H](OC(=O)CCC(=O)O)O[C@@H]2O[C@@]3(C)CC[C@H]4[C@H](C)CC[C@@H]1[C@@]24OO3` [ARTESUNATE] here?
**A.** Its EC50 is 13 µM.

**Q.** Which CC50 at 24 h [17] does the source give for `O=c1cc(-c2ccccc2)oc2cc(O)c(O)c(O)c12` [BAICALEIN] here?
**A.** Its CC50 at 24 h is over 200 µM.

**Q.** With `CC[C@H]1CN2CCc3cc(OC)c(OC)cc3[C@@H]2C[C@@H]1C[C@H]1NCCc2cc(O)c(OC)cc21` [CEPHAELINE] as the molecule, how does the CC50 [19] read?
**A.** The CC50 was 3.03 µM.

**Q.** What about the CC50 [20] of the same molecule?
**A.** The CC50 was 2 µM.

**Q.** What about the EC50 [21] of the same molecule?
**A.** The EC50 was 0.0123 µM.

**Q.** What about the CC50 at 72 h [22] of the same molecule?
**A.** Its CC50 at 72 h is 46.3 µM.

**Q.** Which results are given for `CC[C@H]1CN2CCc3cc(OC)c(OC)cc3[C@@H]2C[C@@H]1C[C@H]1NCCc2cc(OC)c(OC)cc21` [EMETINE]?
**A.** CC50 [19]: 33.4 µM; CC50 [20]: 37.8 µM; EC50 [21]: 7.71 µM; CC50 at 72 h [22]: 2.17 µM

**Q.** With `O[C@H]1[C@H]2c3cc4c(cc3CN3CCC(=C[C@@H]1O)[C@H]23)OCO4` [LYCORINE] as the molecule, how does the CC50 [19] read?
**A.** The CC50 was 0.834 µM.

**Q.** And the CC50 [20]?
**A.** Its CC50 is 1.04 µM.

**Q.** And the EC50 [21]?
**A.** Its EC50 is 0.439 µM.

**Q.** And the CC50 at 72 h [22]?
**A.** Its CC50 at 72 h is over 1000 µM.

**Q.** Which CC50 at 24 h [17] does the source give for `O=c1c(O)c(-c2cc(O)c(O)c(O)c2)oc2cc(O)cc(O)c12` [MYRICETIN] here?
**A.** The CC50 at 24 h was over 200 µM.
